From patent US7018802B2, “Electrochemiluminescent enzyme immunoassay” (BioVeris Corporation, priority 1995, dated 2006)
Like-named read-outs stand apart in the source and are kept apart here.

Assays:
[1] = target: T1, β-lactamase I from Bacillus cereus (Bacillus cereus, UniProt P00809); assay type: biochemical; settings: for ECL increase upon enzyme hydrolysis, second experiment: incubating time with enzyme 60 minutes, ampicillin with Ru(bpy)3^+2, FIG. 9
Description: ECL properties were compared both before and after NaOH and enzymatic hydrolysis (FIG. 7).
Following 30 minute incubations, the solutions were neutralized with 50 μL of 5 M HCl. […] Following 30 minute incubations, 50 μL of 5 M NaCl was added to these solutions.
ECL properties were compared before and after NaOH and enzymatic hydrolysis.
Following 30 minute incubations, the solutions were neutralized with 50 μL of 5 M HCl. […] Following 60 minute incubations, 50 μL of 5 M NaCl was added to these solutions.

[2] = target: T1, β-lactamase I from Bacillus cereus; settings: in words
[3] = 3.8 μM β-lactamase I, 23.0 μM, 6-APA in equimolar mixture with Ru(bpy)3^+2 (nonconjugated), FIG. 11
[4] = 347 nM β-lactamase I, 30 minutes, 30 μM, ampicillin in equimolar mixture with Ru(bpy)3^+2 (nonconjugated), FIG. 8

T1 sequence (P00809 28-306): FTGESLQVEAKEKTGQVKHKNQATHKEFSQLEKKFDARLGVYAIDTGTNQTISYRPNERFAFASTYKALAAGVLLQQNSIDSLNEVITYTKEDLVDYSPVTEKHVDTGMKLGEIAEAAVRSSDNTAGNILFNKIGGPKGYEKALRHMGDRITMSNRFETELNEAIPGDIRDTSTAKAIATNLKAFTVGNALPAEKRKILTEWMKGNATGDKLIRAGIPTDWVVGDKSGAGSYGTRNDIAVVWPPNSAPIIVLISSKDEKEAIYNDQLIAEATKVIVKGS

Compound | ECL increase upon enzyme hydrolysis [1, 3] [fold] | ECL increase upon enzyme hydrolysis [1, 4] [fold] | ECL increase upon enzyme hydrolysis, second experiment [1] [fold] | substrate quality for β-lactamase [2]
CC1(C)S[C@@H]2[C@H](N)C(=O)N2[C@H]1C(=O)O [6-APA, 6-aminopenicillanic acid, reference compound] | 1.4 | – | – | –
CC1(C)S[C@@H]2[C@H](NC(=O)[C@H](N)c3ccccc3)C(=O)N2[C@H]1C(=O)O [ampicillin, reference compound] | – | 2.1 | 2.5 | –
Ru(bpy)3^+2-labeled 6-aminopenicillanic acid [Ru-APA] | 31.8 | – | – | very good substrate
Ru(bpy)3^+2-labeled ampicillin [Ru-AMP] | – | 9.8 | 11.1 | very good substrate
